Tests used:
[1] = test system: Phaedon cochleariae (mustard beetles); experiment: Pest toxicity test; assay type: in vivo
[2] = test system: Tetranychus telarius (red spider mites, adults); experiment: Pest toxicity test; assay type: in vivo; settings: 0.1% by weight; French bean; 3 days
[3] = test system: Musca domestica (houseflies); experiment: Pest toxicity test, contact test; assay type: in vivo; settings: 0.1% by weight; milk/sugar; 2 days; flies sprayed directly
[4] = test system: Plutella maculipennis (diamond back moth larvae); experiment: Pest toxicity test; assay type: in vivo
[5] = test system: Plasmopara viticola (vine); experiment: Fungicidal test against foliar disease C (foliage spray plus soil drench); assay type: in vivo; settings: 100 ppm spray and drench; 10 days
[6] = test system: Piricularia oryzae (rice); assay type: in vivo; settings: 100 ppm spray and drench; 7 days
[7] = test system: Megoura viceae; experiment: Pest toxicity test; assay type: in vivo; settings: 0.1% by weight; broad bean; 2 days
[8] = test system: Pieris brassicae (cabbage white caterpillars); experiment: Pest toxicity test; assay type: in vivo; settings: 0.1% by weight, 2 days
[9] = test system: Uncinula necator (vine); experiment: Fungicidal test against foliar disease D (foliage spray plus soil drench); assay type: in vivo; settings: 100 ppm spray and drench; 10 days
[10] = test system: Phytophthora infestans (tomato); assay type: in vivo; settings: 100 ppm spray and drench; 3 days
[11] = test system: Aphis fabae; experiment: Pest toxicity test; assay type: in vivo; settings: 0.1% by weight; broad bean; 2 days
[12] = test system: Aedes aegypti (mosquito larvae); experiment: Pest toxicity test; assay type: in vivo; settings: 0.01% by weight; water; 1 day
[13] = test system: Aedes aegypti (mosquito adults); experiment: Pest toxicity test; assay type: in vivo; settings: 0.01% by weight; plywood; 1 day
[14] = test system: Puccinia recondita (wheat); experiment: Fungicidal test against foliar disease A (foliage spray plus soil drench); assay type: in vivo; settings: 100 ppm spray and drench; 10 days
[15] = test system: Maize; experiment: Herbicidal test, pre- and post-emergence; assay type: in vivo; settings: 10 kg/ha; scale 0 to 3 (complete kill)
[16] = test system: Wheat; experiment: Herbicidal test, pre- and post-emergence; assay type: in vivo; settings: 10 kg/ha; scale 0 to 3 (complete kill)
[17] = test system: Tomato; experiment: Herbicidal test, pre- and post-emergence; assay type: in vivo; settings: 10 kg/ha; scale 0 to 3 (complete kill)
[18] = test system: Lettuce; experiment: Herbicidal test, pre- and post-emergence; assay type: in vivo; settings: 10 kg/ha; scale 0 to 3 (complete kill)
[19] = test system: Oat; experiment: Further herbicidal test, various rates; assay type: in vivo; settings: scale 0 to 5 (complete kill)
[20] = test system: Agriolimax reticulatus (slugs); experiment: Molluscicidal activity test; assay type: in vivo, Agriolimax reticulatus (Mull); settings: pellet with 4% by weight; 6 days; 10°C
Protocol: A weighed sample of the compound under test was dissolved in 0.5 c.c. of an ethanol and acetone mixture 50:50 v/v). The solution was diluted with 0.5 cc water and poured onto a calf feeding pellet in a glass Petri dish. The pellet was then air dried for 24 hours. The weight of compound used was chosen so that the dried pellet contained 4% by weight of the active ingredient. Two replicates each consisting of a plastic Petri dish containing a pellet, 2 slugs, and a moistened filter paper to maintain a high relative humidity were used in each test. The dishes were left in a cold room (10°C.) After 6 days the kill was assessed.
The slugs used were Agriolimax reticulatus (Mull), and they had been starved for 24 hours before the commencement of the tests.

[21] = test system: Rice; experiment: Further herbicidal test, various rates; assay type: in vivo; settings: scale 0 to 5 (complete kill)
[22] = test system: Kale; experiment: Further herbicidal test, various rates; assay type: in vivo; settings: scale 0 to 5 (complete kill)
[23] = test system: Carrot; experiment: Further herbicidal test, various rates; assay type: in vivo; settings: scale 0 to 5 (complete kill)
[24] = test system: Onion; experiment: Further herbicidal test, various rates; assay type: in vivo; settings: scale 0 to 5 (complete kill)
[25] = test system: Barley; experiment: Further herbicidal test, various rates; assay type: in vivo; settings: scale 0 to 5 (complete kill)
[26] = test system: Sugar beet; experiment: Further herbicidal test, various rates; assay type: in vivo; settings: scale 0 to 5 (complete kill)
[27] = test system: Pea; experiment: Further herbicidal test, various rates; assay type: in vivo; settings: scale 0 to 5 (complete kill)
[28] = test system: Tetranychus telarius (red spider mites, eggs); experiment: Pest toxicity test; assay type: in vivo; settings: 0.1% by weight; French bean; 3 days
[29] = 0.1% by weight, mustard/paper, 2 days

Fc1nc(F)c(Cl)c(Nc2c(Cl)c(Cl)c(Cl)c(Cl)c2Cl)c1Cl [Compound 9, 3,5-Dichloro-2,6-difluoro-4(pentachloroanilino)pyridine]
Mortality grading (kill) ([1]; in vivo): 1 (key: O represents less than 30% kill; 1 represents 30 - 49% kill; 2 represents 60 - 90% kill; 3 represents over 90% kill; C indicates a chemosterilant effect.; A indicates an antifeeding effect.)
Mortality grading (kill) [2]: 3 (3 represents over 90% kill)
Mortality grading (kill), contact test [3]: 3 (3 represents over 90% kill)
Mortality grading (kill) ([4]; in vivo): 3 (key: O represents less than 30% kill; 1 represents 30 - 49% kill; 2 represents 60 - 90% kill; 3 represents over 90% kill; C indicates a chemosterilant effect.; A indicates an antifeeding effect.)
Amount of disease grading, disease C [5]: 0 (61 to 100)
Amount of disease grading, disease E [6]: 3 (0 to 5)
Mortality grading (kill) [7]: 0 (O represents less than 30% kill)
Mortality grading (kill) [8]: 0 (O represents less than 30% kill)
Amount of disease grading, disease D [9]: 3 (0 to 5)
Amount of disease grading, disease B [10]: 0 (61 to 100)
Mortality grading (kill) [11]: 0 (O represents less than 30% kill)
Mortality grading (kill) [12]: 3 (3 represents over 90% kill)
Mortality grading (kill) [13]: 0 (O represents less than 30% kill)
Amount of disease grading, disease A [14]: 3 (0 to 5)

N#Cc1cc([N+](=O)[O-])ccc1Nc1c(Cl)c(F)nc(F)c1Cl [Compound 26, 4(2-Cyano-4-nitroanilino)-3,5-dichloro-2,6-difluoropyridine]
Damage to plants, post-emergence [15]: 0
Damage to plants, pre-emergence [15]: 0
Damage to plants, pre-emergence [16]: 1
Amount of disease grading, disease C (Table 4) [5]: 3 (0 to 5)
Damage to plants, post-emergence [17]: 0
Damage to plants, pre-emergence [17]: 3
Damage to plants, post-emergence [18]: 3
Damage to plants, pre-emergence [18]: 3
Amount of disease grading, disease E (Table 4) [6]: 0 (61 to 100)
Amount of disease grading, disease B (Table 4) [10]: 3 (0 to 5)

O=[N+]([O-])c1ccc(Nc2c(F)c(F)nc(F)c2Cl)c(C(F)(F)F)c1 [Compound 32, 3-Chloro-4(4-nitro-2-trifluoromethylanilino)-2,5,6-trifluoropyridine]
Damage to plants, post-emergence ([19]; 1 kg/hectare): 1
Damage to plants, pre-emergence ([19]; 1 kg/hectare): 3
Damage to plants, post-emergence ([19]; 5 kg/hectare): 0
Damage to plants, pre-emergence ([19]; 5 kg/hectare): 4
% Kill of slugs [20]: 100%
Mortality grading (kill) [1, 29]: 0 (O represents less than 30% kill)
Mortality grading (kill) [2]: 3 (3 represents over 90% kill)
Damage to plants, post-emergence ([21]; 1 kg/hectare): 0
Damage to plants, pre-emergence ([21]; 1 kg/hectare): 4
Damage to plants, post-emergence ([21]; 5 kg/hectare): 0
Damage to plants, pre-emergence ([21]; 5 kg/hectare): 5
Damage to plants, post-emergence [15]: 0
Damage to plants, pre-emergence [15]: 1
Damage to plants, post-emergence [16]: 0
Damage to plants, pre-emergence [16]: 3
Mortality grading (kill) [4, 29]: 2 (2 represents 60 - 90% kill)
Damage to plants, post-emergence ([22]; 1 kg/hectare): 5
Damage to plants, pre-emergence ([22]; 1 kg/hectare): 4
Damage to plants, post-emergence ([22]; 5 kg/hectare): 4
Damage to plants, pre-emergence ([22]; 5 kg/hectare): 5
Damage to plants, post-emergence ([23]; 1 kg/hectare): 2
Damage to plants, pre-emergence ([23]; 1 kg/hectare): 3
Damage to plants, post-emergence ([23]; 5 kg/hectare): 4
Damage to plants, pre-emergence ([23]; 5 kg/hectare): 5
Damage to plants, post-emergence ([24]; 1 kg/hectare): 1
Damage to plants, post-emergence ([24]; 5 kg/hectare): 0
Damage to plants, pre-emergence ([24]; 5 kg/hectare): 5
Amount of disease grading, disease C (Table 4) [5]: 3 (0 to 5)
Damage to plants, post-emergence [17]: 3
Damage to plants, pre-emergence [17]: 3
Damage to plants, post-emergence [18]: 3
Damage to plants, pre-emergence [18]: 3
Damage to plants, post-emergence ([25]; 1 kg/hectare): 1
Damage to plants, pre-emergence ([25]; 1 kg/hectare): 4
Damage to plants, post-emergence ([25]; 5 kg/hectare): 1
Damage to plants, pre-emergence ([25]; 5 kg/hectare): 4
Damage to plants, post-emergence ([26]; 1 kg/hectare): 5
Damage to plants, pre-emergence ([26]; 1 kg/hectare): 4
Damage to plants, post-emergence ([26]; 5 kg/hectare): 5
Damage to plants, pre-emergence ([26]; 5 kg/hectare): 5
Mortality grading (kill) [7]: 0 (O represents less than 30% kill)
Mortality grading (kill) [8]: 3 (3 represents over 90% kill)
Amount of disease grading, disease D (Table 4) [9]: 3 (0 to 5)
Damage to plants, post-emergence ([27]; 1 kg/hectare): 3
Damage to plants, pre-emergence ([27]; 1 kg/hectare): 3
Damage to plants, post-emergence ([27]; 5 kg/hectare): 2
Damage to plants, pre-emergence ([27]; 5 kg/hectare): 5
Mortality grading (kill) [28]: 3 (3 represents over 90% kill)
Mortality grading (kill) [11]: 3 (3 represents over 90% kill)
Mortality grading (kill) [12]: 3 (3 represents over 90% kill)
Mortality grading (kill) [13]: 2 (2 represents 60 - 90% kill)
Amount of disease grading, disease A (Table 4) [14]: 3 (0 to 5)

Fc1nc(F)c(Cl)c(Nc2c(Cl)c(F)c(Cl)c(F)c2Cl)c1Cl [Compound 43, 3,5-Dichloro-2,6-difluoro-4(3,5-difluoro-2,4,6-trichloroanilino) pyridine]
Damage to plants, post-emergence ([19]; 5 kg/hectare): 4
Damage to plants, pre-emergence ([19]; 5 kg/hectare): 0
% Kill of slugs [20]: 100%
Mortality grading (kill) ([1]; in vivo): 0 (key: O represents less than 30% kill; 1 represents 30 - 49% kill; 2 represents 60 - 90% kill; 3 represents over 90% kill; C indicates a chemosterilant effect.; A indicates an antifeeding effect.)
Mortality grading (kill) [2]: 3 (3 represents over 90% kill)
Damage to plants, post-emergence ([21]; 5 kg/hectare): 1
Damage to plants, pre-emergence ([21]; 5 kg/hectare): 0
Damage to plants, post-emergence [15]: 2
Damage to plants, pre-emergence [15]: 0
Mortality grading (kill), contact test [3]: 3 (3 represents over 90% kill)
Damage to plants, post-emergence [16]: 0
Damage to plants, pre-emergence [16]: 1
Mortality grading (kill) ([4]; in vivo): 2 (key: O represents less than 30% kill; 1 represents 30 - 49% kill; 2 represents 60 - 90% kill; 3 represents over 90% kill; C indicates a chemosterilant effect.; A indicates an antifeeding effect.)
Damage to plants, post-emergence ([22]; 5 kg/hectare): 5
Damage to plants, pre-emergence ([22]; 5 kg/hectare): 1
Damage to plants, post-emergence ([23]; 5 kg/hectare): 5
Damage to plants, pre-emergence ([23]; 5 kg/hectare): 0
Damage to plants, pre-emergence ([24]; 5 kg/hectare): 0
Damage to plants, post-emergence [17]: 3
Damage to plants, pre-emergence [17]: 1
Damage to plants, post-emergence [18]: 3
Damage to plants, pre-emergence [18]: 3
Damage to plants, post-emergence ([25]; 5 kg/hectare): 3
Damage to plants, pre-emergence ([25]; 5 kg/hectare): 1
Damage to plants, post-emergence ([26]; 5 kg/hectare): 5
Damage to plants, pre-emergence ([26]; 5 kg/hectare): 0
Mortality grading (kill) [7]: 3 (3 represents over 90% kill)
Mortality grading (kill) [8]: 3 (3 represents over 90% kill)
Amount of disease grading, disease D (Table 4) [9]: 3 (0 to 5)
Damage to plants, post-emergence ([27]; 5 kg/hectare): 5
Damage to plants, pre-emergence ([27]; 5 kg/hectare): 0
Mortality grading (kill) [28]: 3 (3 represents over 90% kill)
Mortality grading (kill) [11]: 3 (3 represents over 90% kill)
Mortality grading (kill) [12]: 3 (3 represents over 90% kill)
Mortality grading (kill) [13]: 0 (O represents less than 30% kill)
